How the values were obtained:
Hsp90 = target: T1, Hsp90 (Homo sapiens, UniProt P07900); assay: SPR binding assay on immobilized Hsp90
T1 construct: purchased Assay Designs (Ann Arbor, MI, USA); host or cells: E. coli
Description: Radicicol was used as positive controls.
SPR analyses were performed as describe elsewhere, [38]. Briefly, SPR analyses were performed using a Biacore 3000 optical biosensor equipped with research-grade CM5 sensor chips (GE Healthcare). Using this platform, two separate recombinant Hsp90 surfaces, a BSA surface and an unmodified reference surface were prepared for simultaneous analyses. […] Included in each analysis were multiple blank samples of running buffer alone. Binding experiments were performed at 25°C, using a flow rate of 50 µL min^−1, with 60 s monitoring of association and 200 s monitoring of dissociation. […] Sensorgram elaborations were performed using the Biaevaluation software provided by GE Healthcare.

Hsp90 ATPase activity = target: T2, Hsp90 ATPase activity (Homo sapiens, UniProt P07900); assay: ATP hydrolysis inhibition (ADP Hunter Plus assay); type: biochemical; settings: 40 nM Hsp90, 100 µM ATP; for inhibition of the ATPase activity of Hsp90: 60 min, 40°C, different concentrations
T2 construct: purchased Assay Designs (Ann Arbor, MI, USA); host or cells: E. coli
Description: To evaluate the effect of interacting compounds on Hsp90 biological activity, the ATPase activity of the enzyme was tested in the presence of the most affine compounds (1, 3 and 4); […]. (−)-Lentiginosine was used as negative control.
The Discover RX ADP HunterTM Plus Assay kit was used following the manufacturer’s instructions. […]. ADP generation was measured using a Perkin Elmer LS 55 fluorimeter (540 nm excitation and 620 nm emission). Fluorescence intensity values measured for Hsp90 without any testing compound was assumed as 100% of enzyme activity. The background reaction rate was measured in a reaction lacking enzyme or substrate and subtracted from the experimental rates.

[1] = target: T3, human full length recombinant Hsp90 (Homo sapiens, UniProt P07900); assay: Competitive fluorescence polarization assay with fluorescent geldanamycin probe (fGDA); type: binding; settings: concentration up to 100 µM, added before or after fGDA
T3 construct: purchased Assay Designs (Ann Arbor, MI, USA); host or cells: E. coli
Description: In an effort to identify the Hsp90 region involved in (+)-lentiginosine binding, we first performed some fluorescence polarization assays using a fluorescent geldanamycin probe (fGDA) to evaluate if this compound could interact with the ATP-binding pocket of Hsp90 [25].
Binding of compound 1 to human full length recombinant Hsp90 was determined by a competitive binding fluorescence polarization assay using a fluorescent geldanamycin probe, as reported elsewhere.

Hsp90 chaperone activity = target: T4, Hsp90 chaperone activity (Homo sapiens, UniProt P07900); assay: Citrate synthase thermal aggregation assay (chaperone activity); type: biochemical; settings: 0.075 µM CS, 0.075 µM Hsp90, 0.3 µM compound (4-fold molar excess), 43°C, light scattering
T4 construct: purchased Assay Designs (Ann Arbor, MI, USA); host or cells: E. coli
Description: The ability of compounds 1, 3 and 4 to inhibit the chaperone activity of Hsp90 was also evaluated monitoring the citrate synthase (CS) thermal induced aggregation in the presence of Hsp90 [24], with or without these compounds. […] The spontaneous aggregation of CS at 43°C (♦) and the aggregation of CS at 43°C in the presence of 0.075 µM Hsp90 (Δ) or of 0.075 µM Hsp90 and 0.3 µM compound 1 (▪), 0.3 µM compound 2 (•), 0.3 compound 3 (□), or 0.3 µM compound 4 (○) are shown. Chaperone activity was evaluated as reported elsewhere by monitoring the thermal-induced aggregation of Citrate synthase (CS) in absence or in presence of a stoichiometric amount of Hsp90, and with or without a 4-fold molar excess of each testing compound. Aggregation was initiated by unfolding CS (0.075 µM) incubating the protein in 40 mM HEPES–KOH, pH 7.5 at 43°C. Aggregation was monitored by measuring light scattering at right angles with Perkin Elmer LS 55 fluorimeter in stirred and thermostated quartz cells. Both the emission and excitation wavelengths were set at 500 nm, and the band pass was 2 nm. Kinetics traces reported here are the averages of two measurements.

[2] = immobilized Hsp90, 25°C, single-site bimolecular model

## N[C@H]1CCN2C[C@H](O)[C@@H](O)[C@@H]2C1 [Compound 7]
Hsp90; [2]
  Kd: 1009 ± 5.8 nM
  koff: 25.6±2.1 10^-3 1/s

## O[C@@H]1[C@@H](O)CN2CCCC[C@@H]12 [Compound 1, (+)-lentiginosine]
Hsp90 ATPase activity
  ATPase inhibitory power compared with 17-AAG: inhibitory power higher than that measured for 17-AAG
  inhibition of the ATPase activity of Hsp90: inhibit the ATPase activity of Hsp90 in a concentration dependent manner
[1]
  displacement of fGDA from Hsp90: unable to displace fGDA
Hsp90 chaperone activity
  inhibition of Hsp90 chaperone activity (CS aggregation kinetics): inhibition of Hsp90 chaperone activity
Hsp90; [2]
  Kd: 24.7 ± 0.6 nM
  koff: 1.86±0.31 10^-3 1/s

## CCCCCCc1cn([C@H]2CCN3C[C@H](O)[C@@H](O)[C@@H]3C2)nn1 [Compound 4]
Hsp90 ATPase activity
  inhibition of the ATPase activity of Hsp90: inhibit the ATPase activity of Hsp90 in a concentration dependent manner
Hsp90 chaperone activity
  inhibition of Hsp90 chaperone activity (CS aggregation kinetics): inhibitory effects were less evident
Hsp90; [2]
  Kd: 45.9 ± 0.5 nM
  koff: 2.05±0.42 10^-3 1/s

## N[C@@H](Cc1c[nH]c2ccccc12)C(=O)NCc1cn([C@H]2CCN3C[C@H](O)[C@@H](O)[C@@H]3C2)nn1 [Compound 6]
Hsp90; [2]
  Kd: 306.8 ± 2.9 nM
  koff: 4.12±0.81 10^-3 1/s

## O[C@H]1[C@H](O)CN2CCCC[C@H]12 [Compound 2, (−)-lentiginosine]
Hsp90 chaperone activity
  inhibition of Hsp90 chaperone activity (CS aggregation kinetics): not able to inhibit the chaperone activity of Hsp90
Hsp90; 0.020 to 1 µM
  interaction with immobilized Hsp90: did not bind
Hsp90; [2]
  KD: No binding

## N=C(N)NCCC[C@H](N)C(=O)N[C@H]1CCN2C[C@H](O)[C@@H](O)[C@@H]2C1 [Compound 3]
Hsp90 ATPase activity
  inhibition of the ATPase activity of Hsp90: inhibit the ATPase activity of Hsp90 in a concentration dependent manner
Hsp90 chaperone activity
  inhibition of Hsp90 chaperone activity (CS aggregation kinetics): inhibitory effects were less evident
Hsp90; [2]
  Kd: 108 ± 1.1 nM
  koff: 2.18±0.23 10^-3 1/s

## OCCc1cn([C@H]2CCN3C[C@H](O)[C@@H](O)[C@@H]3C2)nn1 [Compound 5]
Hsp90; [2]
  Kd: 116 ± 1.6 nM
  koff: 2.55±0.35 10^-3 1/s
